ChEMBL document CHEMBL1201862, “PubChem BioAssay data set” (2004)
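1) Cells in 96-well plates. 2) Compound, 48 h, 5 concentrations. 3) Linear interpolation between surrounding doses. 4) Unreached endpoint = highest concentration. GI50: concentration for 50% inhibition of growth.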 The source made the active and inactive calls. Rule as the data show it: active = GI50 up to about 1.1 µM and inactive = higher.

Legend:
Assay in all cases: NCI anticancer screen, dose series, 48 h
BT-549 = tested on: BT-549
CAKI-1 = tested on: CAKI-1
HCC 2998 = tested on: HCC 2998
HCT-116 = tested on: HCT-116
HL-60 = tested on: HL-60
IGROV-1 = tested on: IGROV-1
K562 = tested on: K562
MDA-MB-231 = tested on: MDA-MB-231
MOLT-4 = tested on: MOLT-4
SF-295 = tested on: SF-295
SF-539 = tested on: SF-539
SK-MEL-28 = tested on: SK-MEL-28
SK-MEL-2 = tested on: SK-MEL-2
SK-MEL-5 = tested on: SK-MEL-5
SR = tested on: SR
SW-620 = tested on: SW-620
T47D = tested on: T47D
TK-10 = tested on: TK-10
UACC-257 = tested on: UACC-257
UACC-62 = tested on: UACC-62

Structure (SMILES) | GI50 (BT-549) | GI50 (CAKI-1) | GI50 (HCC 2998) | GI50 (HCT-116) | GI50 (HL-60) | GI50 (IGROV-1) | GI50 (K562) | GI50 (MDA-MB-231) | GI50 (MOLT-4) | GI50 (SF-295) | GI50 (SF-539) | GI50 (SK-MEL-28) | GI50 (SK-MEL-2) | GI50 (SK-MEL-5) | GI50 (SR) | GI50 (SW-620) | GI50 (T47D) | GI50 (TK-10) | GI50 (UACC-257) | GI50 (UACC-62)
N=C(N)NCCCS(=O)(=O)Nc1ccc(Nc2c3ccccc3nc3cc([N+](=O)[O-])ccc23)cc1 | 27.2 µM (inactive) | 40.8 µM (inactive) | 14.7 µM (inactive) | 16.5 µM (inactive) | 22.3 µM (inactive) | 18.4 µM (inactive) | 22.3 µM (inactive) | 35.2 µM (inactive) | 2.33 µM (inactive) | 20.3 µM (inactive) | 20.3 µM (inactive) | 18.1 µM (inactive) | 21.6 µM (inactive) | 5.55 µM (inactive) | 5.42 µM (inactive) | 14.9 µM (inactive) | 0.728 µM (active) | 21.2 µM (inactive) | 22.5 µM (inactive) | 12.1 µM (inactive)
Cc1c(C2=C(Br)C(=O)N(C)C2=O)c(=O)n(C)c(=O)n1C | 24.3 µM (inactive) | 19 µM (inactive) | 22.2 µM (inactive) | 20.5 µM (inactive) | 17.1 µM (inactive) | 18 µM (inactive) | 21.3 µM (inactive) | 25.2 µM (inactive) | 15.8 µM (inactive) | > 100 µM (inactive) | 14.9 µM (inactive) | 39.4 µM (inactive) | 16.1 µM (inactive) | 22 µM (inactive) | 23.1 µM (inactive) | 31.4 µM (inactive) | 19.8 µM (inactive) | 17.4 µM (inactive) | 17.4 µM (inactive) | 34.4 µM (inactive)
COc1cccc2c1C(=O)c1c(O)c3c(c(O)c1C2=O)C[C@@](O)(C(=O)CO)C[C@@H]3OC1CC(N)C(OC)C(C)O1 (stereo not given in full) | 0.27 µM (active) | 0.054 µM (active) | 0.139 µM (active) | 0.0282 µM (active) | < 0.0163 µM (active) | 0.108 µM (active) | 0.0284 µM (active) | 0.474 µM (active) | < 0.01 µM (active) | 0.0206 µM (active) | 0.0421 µM (active) | 0.315 µM (active) | 0.161 µM (active) | 0.0362 µM (active) | < 0.0157 µM (active) | 0.0249 µM (active) | 0.23 µM (active) | 0.838 µM (active) | 0.282 µM (active) | 0.0461 µM (active)
CCN(CC)C(=S)SC(C(=O)Nc1nnc(-c2ccc(Cl)cc2)o1)c1ccccc1 (stereo not given) | 28.5 µM (inactive) | 11.7 µM (inactive) | 3.41 µM (inactive) | 3.46 µM (inactive) | 4.85 µM (inactive) | 2.7 µM (inactive) | 12.8 µM (inactive) | 26 µM (inactive) | 3.48 µM (inactive) | 12.8 µM (inactive) | 14.8 µM (inactive) | 14 µM (inactive) | 20.6 µM (inactive) | 4.6 µM (inactive) | 4.97 µM (inactive) | 5.41 µM (inactive) | 6.53 µM (inactive) | 23.5 µM (inactive) | 31.6 µM (inactive) | 7.35 µM (inactive)
CCCCC/C=C1\CCC(CN2CCOCC2)C1=O (stereo not given) | 14.7 µM (inactive) | 5.28 µM (inactive) | 12.5 µM (inactive) | 9.35 µM (inactive) | 2.26 µM (inactive) | 13.8 µM (inactive) | 2.36 µM (inactive) | 4.7 µM (inactive) | 2.43 µM (inactive) | 16.8 µM (inactive) | 14.8 µM (inactive) | 7.91 µM (inactive) | 13.7 µM (inactive) | 15.4 µM (inactive) | 3.52 µM (inactive) | 3.2 µM (inactive) | 2.72 µM (inactive) | 7.59 µM (inactive) | 9.79 µM (inactive) | 12.4 µM (inactive)
COC(COC(N)=O)C1=C(N2CC2)C(=O)C(C)=C(N2CC2)C1=O (stereo not given) [CARBOQUONE] | 0.103 µM (active) | < 0.0119 µM (active) | 0.131 µM (active) | 0.0284 µM (active) | < 0.0114 µM (active) | 0.197 µM (active) | 0.0352 µM (active) | 0.292 µM (active) | 0.0418 µM (active) | 0.0178 µM (active) | < 0.0198 µM (active) | 0.172 µM (active) | 0.193 µM (active) | 0.046 µM (active) | < 0.0221 µM (active) | 0.0302 µM (active) | 0.0435 µM (active) | 0.239 µM (active) | 0.126 µM (active) | < 0.0156 µM (active)
COc1cc2ncnc(Nc3cccc(Br)c3)c2cc1OC | 12.8 µM (inactive) | 1.37 µM (inactive) | 3.26 µM (inactive) | 14.4 µM (inactive) | > 28.8 µM (inactive) | 2.02 µM (inactive) | 15.9 µM (inactive) | 5.61 µM (inactive) | 16.6 µM (inactive) | 3.17 µM (inactive) | 4.07 µM (inactive) | 4.52 µM (inactive) | 3.14 µM (inactive) | 2.18 µM (inactive) | 20.3 µM (inactive) | 13.2 µM (inactive) | 6.81 µM (inactive) | 0.653 µM (active) | 7.5 µM (inactive) | 3.85 µM (inactive)
O=C(NCCc1ccc(F)cc1)c1cc(/C=C/c2cc(O)ccc2O)ccc1O | 1.44 µM (inactive) | 3.03 µM (inactive) | 7.23 µM (inactive) | 1.95 µM (inactive) | 2.38 µM (inactive) | 2.31 µM (inactive) | 3.03 µM (inactive) | 3.3 µM (inactive) | 2.48 µM (inactive) | 16.1 µM (inactive) | 2.36 µM (inactive) | 3.21 µM (inactive) | 2.67 µM (inactive) | 2.4 µM (inactive) | 2.96 µM (inactive) | 7.64 µM (inactive) | 2.24 µM (inactive) | 2.61 µM (inactive) | 2.41 µM (inactive) | 2.12 µM (inactive)
Nc1nc(N)c(CCCCc2ccccc2)c(N)n1 | > 100 µM (inactive) | > 100 µM (inactive) | > 100 µM (inactive) | > 100 µM (inactive) | > 100 µM (inactive) | > 100 µM (inactive) | > 100 µM (inactive) | > 100 µM (inactive) | > 100 µM (inactive) | > 100 µM (inactive) | > 100 µM (inactive) | > 100 µM (inactive) | > 100 µM (inactive) | > 100 µM (inactive) | > 100 µM (inactive) | > 100 µM (inactive) | > 100 µM (inactive) | > 100 µM (inactive) | > 100 µM (inactive) | > 100 µM (inactive)
O=c1[nH]nc(Cc2ccc(Cl)cc2)n1/N=C\CC/C=N\n1c(Cc2ccc(Cl)cc2)n[nH]c1=O | 12.2 µM (inactive) | > 56 µM (inactive) | > 100 µM (inactive) | 27.2 µM (inactive) | > 24.2 µM (inactive) | 9.93 µM (inactive) | > 88.7 µM (inactive) | 25.8 µM (inactive) | > 24.1 µM (inactive) | 24.4 µM (inactive) | 8.49 µM (inactive) | 23.6 µM (inactive) | 29.8 µM (inactive) | 47.3 µM (inactive) | 3.1 µM (inactive) | > 62.2 µM (inactive) | 20 µM (inactive) | > 100 µM (inactive) | 50.9 µM (inactive) | 10.9 µM (inactive)
